Experiments:
Type in all cases: in vivo
db/db mice [1] = assay: Histopathological examination of pancreas (H&E) in db/db mice; conditions: G5: Diabex 400 mg/kg/day oral, three weeks
Description: All the experimental animals were anesthetized by inhalation with CO2 and autopsied by laparotomy, and blood was collected from the posterior vena cava. After blood collection, the animals were killed by excision of the abdominal aorta and posterior vena cava and exsanguination. For histopathological examination, hematoxylin & eosin (H&E) staining was conducted to measure numbers and diameters of pancreatic islets and proportions of zymogen granules per unit area of exocrine pancreatic portions.

db/db mice [2] = assay: Blood glucose level after repeated oral administration for three weeks in db/db mice; conditions: G5: Diabex 400 mg/kg/day oral
Description: In this experiment, the test material lyophilizate of a mycelial culture of Irpex lacteus KACC 83046BP was orally administered to the db/db mice, which are an animal model of diabetes, for three weeks and examined for hypoglycemic effect. This test was conducted in the Local Food Institute of Gimcheon University.
For use in tests, sterile water for injection (excipient) was used as a negative control while Diabex tablet ([…], 500 mg) commercially available from Dai Han Pharm. Co., Ltd. (Kyeonggi-do) was used as a positive control. A test substance was divided into three groups: high-, medium-, and low-dose groups, which were prepared in suspension by adding the same amount of the test substance to different amounts of the sterile water for injection.
Blood glucose levels were measured once a week for three weeks during the experiment. In order to objectively measure blood glucose levels, all experimental animals were blocked from eating feed 6 hours before blood glucose measurement on the day of blood glucose measurement. Blood glucose levels were measured using a portable blood glucose meter (Accu-Check Performa/USA).

db/db mice [3] = assay: Blood insulin and c-peptide measurement (ELISA) in db/db mice; conditions: three weeks
Description: C-peptide is a substance that is secreted when proinsulin, a precursor of insulin, is degraded and released. The peptide, although lacking bioactivity, accounts for the secretion state of insulin. In addition, with a long half-life, C-peptide is used as an index to evaluate insulin secretion. The sera stored in separation were quantitatively assayed for insulin and c-peptide, using an ELISA kit (Shibayagi, AKRIN-011T and AKRCP-031).

db/db mice [4] = assay: Hemato-biochemical examination in db/db mice; conditions: G5: Diabex 400 mg/kg/day oral, three weeks
Description: Of the blood collected for clinical pathology on the day of the end of the experiment, about 200 μL was used for analyzing glycated hemoglobin (HbA1c) while the remainder was left for 30 min or longer at room temperature in a vacutainer tube containing a clot activator and then centrifuged at 3000 rpm for 10 min. The serum obtained by centrifugation was transferred to a new tube and subjected to hemato-biochemical examination.
Using a hemato-biochemical analyzer, whole blood and sera which had been stored separately were subjected to hemato-biological examination for total cholesterol (TCHO), aspartate aminotransferase (AST), high-density lipoprotein (HDL), low-density lipoprotein (LDL), alanine aminotransferase (ALT), and glycated hemoglobin (HbA1c).

db/db mice [5] = assay: Oral glucose tolerance test (OGTT) in db/db mice; conditions: G5: Diabex 400 mg/kg oral
Description: (1) The OGTT measures the body's ability to use glucose.
(2) After 6 days of acclimatization, OGTT test animals were fasted for 16 hours before OGTT (water provided).
(3) Blood glucose was measured 30 minutes before administration of the test substance and once again 30 minutes later, that is, just before glucose administration.
(4) At 30, 60, 90, 120, and 240 min after administration of oral glucose at a dose of 2 g/10 mL/kg, blood was taken from tail veins and measured for glucose levels using a blood glucose meter (Accu-Check Performa).

## metformin phosphate [Diabex]
db/db mice [1]
  Diameter of islet: 126.25 ± 5.3 μm
  No. of pancreatic Islets: 6.25 ± 0.1 islets/cm^2
  Zymogen granules: 41.39 ± 0.7 %/mm^2 of exocrine pancreas
db/db mice [2]; Day 1 (first day of administration)
  Blood glucose level: 365 ± 24 mg/dL
db/db mice [2]; Week 1
  Blood glucose level: 371 ± 12 mg/dL
db/db mice [2]; Week 2
  Blood glucose level: 452 ± 13 mg/dL
db/db mice [2]; Week 3
  Blood glucose level: 436 ± 11 mg/dL
db/db mice [3]; G5 (Diabex 400 mg/kg) oral
  Blood insulin compared to the negative control (G1): significant decrease
db/db mice [3]; G5: Diabex 400 mg/kg/day oral
  Blood C-peptide level: 459.7 ± 82.3 pg/mL
  Blood insulin level: 1.96 ± 0.39 ng/mL
db/db mice [4]
  ALT: 72.1 ± 4.5 U/L
  AST: 116.5 ± 4.6 U/L
  HDL: 88.2 ± 4.2 mg/dL
  HbA1c: 6.8 ± 0.2 %
  LDL: 25.9 ± 2.7 mg/dL
  TCHO: 116.7 ± 3.2 mg/dL
db/db mice [5]; 0 min (just before glucose 2 g/kg)
  Blood glucose level (OGTT): 385 ± 33 mg/dL
db/db mice [5]; 30 min after glucose
  Blood glucose level (OGTT): 421 ± 29 mg/dL
db/db mice [5]; 60 min after glucose
  Blood glucose level (OGTT): 343 ± 12 mg/dL
db/db mice [5]; 90 min after glucose
  Blood glucose level (OGTT): 246 ± 26 mg/dL
db/db mice [5]; 120 min after glucose
  Blood glucose level (OGTT): 208 ± 11 mg/dL
db/db mice [5]; 240 min after glucose
  Blood glucose level (OGTT): 174 ± 22 mg/dL
db/db mice [5]; −30 min (before administration)
  Blood glucose level (OGTT): 265 ± 11 mg/dL
